For this test, the system named is tomato spotted wilt virus ("TSWV"). Description: Greenhouse test of in-furrow treatments on peanut plants infected with tomato spotted wilt virus. The test is classed as in vivo. Conditions: peanut plants (Arachis hypogaea), furrow spray; imidacloprid 254.85 g/HA; 63 days after treatment. The method, then: The following greenhouse test was conducted from May 31, 2018 to Oct. 22, 2018 in Tift County, Georgia. Peanut plants (Arachis hypogaea) were used in the test as the crop plant. 6 seeds were planted per foot per row giving 360 seeds per plot. The peanut plants were infected with tomato spotted wilt virus (“TSWV”). Furrows were sprayed with B. amyloliquefaciens strain PTA-4838, imidacloprid, fluopyram and/or Mycorrhizae consortium at the rates disclosed in Table 1 prior to seedling plating. The plants were then infected with TSWV. Number of live plants were counted at 63 days after treatment. Percent TSWV infection was calculated as percent of row feet infected per plot. All data was analyzed using Bartlett's test and with p value of […] for determining significance of the results.

In the case of `O=[N+]([O-])NC1=NCCN1Cc1ccc(Cl)nc1` [Imidacloprid, imidacloprid], the “% Control” value stood at 96.4a %.
